Experimental data as given in ChEMBL document CHEMBL1201862, “PubChem BioAssay data set” (2004).
Activity calls are given as the source filed them.

How the values were obtained:
[1] = NIH3T3 cell viability loss – ATP luminescence, mouse fibroblasts, counter-screen, dose response (AID 2010); format: functional, cell-based;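 further: cells exposed to compound for about 90 hours before reading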
Fatty acid synthase [2] = molecular target: T1, Fatty acid synthase (Homo sapiens, UniProt P49327); assay: inhibition of human FAS-TE enzyme activity – biochemical, endpoint fluorescence intensity, uHTS hits, dose response (AID 624327); format: functional;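 further: fluorescence from hydrolysis of an O-methyl fluorescein acyl ester substrate by the enzyme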
Fatty acid synthase [3] = molecular target: T1, Fatty acid synthase; assay: inhibition of human FAS-TE enzyme activity – biochemical, kinetic fluorescence intensity, dose response (AID 624326); format: functional;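 further: rate of fluorescence rise from hydrolysis of a fluorogenic O-methyl fluorescein ester substrate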
[4] = Trypanosoma cruzi growth suppression in host cells – NIH3T3 host cells, beta-gal luminescence, confirmation (AID 2044); format: functional, cell-based;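 further: intracellular parasites grown in NIH/3T3 mouse fibroblasts as host cells; luminescent beta-galactosidase reporter signal from transgenic T. cruzi replicating inside host cells; inhibitors lower the luminescence signal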
[5] = viability of PTEN-deleted HCT116 cells – cell-based, HCT116 PTEN knockout, dose response (AID 1047); format: functional;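 further: HCT116 colon tumor cells with PTEN knocked out; cells exposed to compound for 60 hours before readout; potency for loss of cell viability measured by luminescence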
[6] = viability of HCT116 lacking mutant beta-catenin – cell-based, human colon tumor, dose response (AID 1045); format: functional;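 further: HCT116 colon tumor cells with beta catenin knocked out; cells exposed to compound for 60 hours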
INS1 = assay: INS-1E survival protection against cytokine death – cell-based, luminescence, retest, dose response (AID 449756); format: functional; conditions: Rattus norvegicus;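 further: cell death triggered by IL-1 beta plus TNF-alpha plus IFN-gamma mixture; protective hits raise ATP signal compared with cytokine alone wells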
[7] = viability of uninfected HEp-2 cells – cell-based, HTS, cytotoxicity control for RSV inhibitor project, dose response (AID 2410); format: functional; conditions: human respiratory syncytial virus
Cytochrome P450 2D6 = Cytochrome P450 2D6 (Homo sapiens, UniProt P10635);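 further: CYP2D6 member of a cytochrome P450 panel assay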
[8] = molecular target: T2, Corticotropin-releasing factor receptor 2/Corticotropin-releasing factor-binding protein (Homo sapiens, UniProt P24387+Q13324); assay: activators of CRF receptor 2 with binding protein – uHTS hits, confirmation (AID 602473); format: functional; conditions: read-out: EC50_Mean
T2 sequence (Q13324 whole entry): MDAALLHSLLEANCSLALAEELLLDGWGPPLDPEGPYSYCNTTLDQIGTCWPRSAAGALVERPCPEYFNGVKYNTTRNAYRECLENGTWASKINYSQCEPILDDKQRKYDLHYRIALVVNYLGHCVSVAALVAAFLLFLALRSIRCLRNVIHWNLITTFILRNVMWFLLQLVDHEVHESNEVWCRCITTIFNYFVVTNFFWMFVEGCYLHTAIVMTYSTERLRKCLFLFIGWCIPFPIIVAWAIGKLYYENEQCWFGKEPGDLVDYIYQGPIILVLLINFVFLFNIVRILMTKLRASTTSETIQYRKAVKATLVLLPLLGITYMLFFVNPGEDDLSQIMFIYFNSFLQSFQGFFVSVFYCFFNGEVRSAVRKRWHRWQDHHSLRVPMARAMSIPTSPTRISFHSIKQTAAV
T2 sequence (P24387 whole entry): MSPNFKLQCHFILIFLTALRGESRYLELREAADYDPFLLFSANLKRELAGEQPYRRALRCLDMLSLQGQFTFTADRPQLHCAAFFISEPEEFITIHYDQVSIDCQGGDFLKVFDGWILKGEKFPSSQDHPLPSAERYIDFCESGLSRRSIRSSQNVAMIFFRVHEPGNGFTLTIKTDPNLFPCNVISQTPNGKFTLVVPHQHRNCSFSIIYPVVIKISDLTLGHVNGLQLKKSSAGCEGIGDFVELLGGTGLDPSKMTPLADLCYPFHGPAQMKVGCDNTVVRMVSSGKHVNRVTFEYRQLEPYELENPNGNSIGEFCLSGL

[9] = molecular target: T2, Corticotropin-releasing factor receptor 2/Corticotropin-releasing factor-binding protein; assay: Dose Response confirmation of uHTS hits for small molecule antagonists of the CRF-binding protein and CRF-R2 receptor complex.; format: functional; conditions: read-out: IC50_Mean

T1 sequence (P49327 whole entry): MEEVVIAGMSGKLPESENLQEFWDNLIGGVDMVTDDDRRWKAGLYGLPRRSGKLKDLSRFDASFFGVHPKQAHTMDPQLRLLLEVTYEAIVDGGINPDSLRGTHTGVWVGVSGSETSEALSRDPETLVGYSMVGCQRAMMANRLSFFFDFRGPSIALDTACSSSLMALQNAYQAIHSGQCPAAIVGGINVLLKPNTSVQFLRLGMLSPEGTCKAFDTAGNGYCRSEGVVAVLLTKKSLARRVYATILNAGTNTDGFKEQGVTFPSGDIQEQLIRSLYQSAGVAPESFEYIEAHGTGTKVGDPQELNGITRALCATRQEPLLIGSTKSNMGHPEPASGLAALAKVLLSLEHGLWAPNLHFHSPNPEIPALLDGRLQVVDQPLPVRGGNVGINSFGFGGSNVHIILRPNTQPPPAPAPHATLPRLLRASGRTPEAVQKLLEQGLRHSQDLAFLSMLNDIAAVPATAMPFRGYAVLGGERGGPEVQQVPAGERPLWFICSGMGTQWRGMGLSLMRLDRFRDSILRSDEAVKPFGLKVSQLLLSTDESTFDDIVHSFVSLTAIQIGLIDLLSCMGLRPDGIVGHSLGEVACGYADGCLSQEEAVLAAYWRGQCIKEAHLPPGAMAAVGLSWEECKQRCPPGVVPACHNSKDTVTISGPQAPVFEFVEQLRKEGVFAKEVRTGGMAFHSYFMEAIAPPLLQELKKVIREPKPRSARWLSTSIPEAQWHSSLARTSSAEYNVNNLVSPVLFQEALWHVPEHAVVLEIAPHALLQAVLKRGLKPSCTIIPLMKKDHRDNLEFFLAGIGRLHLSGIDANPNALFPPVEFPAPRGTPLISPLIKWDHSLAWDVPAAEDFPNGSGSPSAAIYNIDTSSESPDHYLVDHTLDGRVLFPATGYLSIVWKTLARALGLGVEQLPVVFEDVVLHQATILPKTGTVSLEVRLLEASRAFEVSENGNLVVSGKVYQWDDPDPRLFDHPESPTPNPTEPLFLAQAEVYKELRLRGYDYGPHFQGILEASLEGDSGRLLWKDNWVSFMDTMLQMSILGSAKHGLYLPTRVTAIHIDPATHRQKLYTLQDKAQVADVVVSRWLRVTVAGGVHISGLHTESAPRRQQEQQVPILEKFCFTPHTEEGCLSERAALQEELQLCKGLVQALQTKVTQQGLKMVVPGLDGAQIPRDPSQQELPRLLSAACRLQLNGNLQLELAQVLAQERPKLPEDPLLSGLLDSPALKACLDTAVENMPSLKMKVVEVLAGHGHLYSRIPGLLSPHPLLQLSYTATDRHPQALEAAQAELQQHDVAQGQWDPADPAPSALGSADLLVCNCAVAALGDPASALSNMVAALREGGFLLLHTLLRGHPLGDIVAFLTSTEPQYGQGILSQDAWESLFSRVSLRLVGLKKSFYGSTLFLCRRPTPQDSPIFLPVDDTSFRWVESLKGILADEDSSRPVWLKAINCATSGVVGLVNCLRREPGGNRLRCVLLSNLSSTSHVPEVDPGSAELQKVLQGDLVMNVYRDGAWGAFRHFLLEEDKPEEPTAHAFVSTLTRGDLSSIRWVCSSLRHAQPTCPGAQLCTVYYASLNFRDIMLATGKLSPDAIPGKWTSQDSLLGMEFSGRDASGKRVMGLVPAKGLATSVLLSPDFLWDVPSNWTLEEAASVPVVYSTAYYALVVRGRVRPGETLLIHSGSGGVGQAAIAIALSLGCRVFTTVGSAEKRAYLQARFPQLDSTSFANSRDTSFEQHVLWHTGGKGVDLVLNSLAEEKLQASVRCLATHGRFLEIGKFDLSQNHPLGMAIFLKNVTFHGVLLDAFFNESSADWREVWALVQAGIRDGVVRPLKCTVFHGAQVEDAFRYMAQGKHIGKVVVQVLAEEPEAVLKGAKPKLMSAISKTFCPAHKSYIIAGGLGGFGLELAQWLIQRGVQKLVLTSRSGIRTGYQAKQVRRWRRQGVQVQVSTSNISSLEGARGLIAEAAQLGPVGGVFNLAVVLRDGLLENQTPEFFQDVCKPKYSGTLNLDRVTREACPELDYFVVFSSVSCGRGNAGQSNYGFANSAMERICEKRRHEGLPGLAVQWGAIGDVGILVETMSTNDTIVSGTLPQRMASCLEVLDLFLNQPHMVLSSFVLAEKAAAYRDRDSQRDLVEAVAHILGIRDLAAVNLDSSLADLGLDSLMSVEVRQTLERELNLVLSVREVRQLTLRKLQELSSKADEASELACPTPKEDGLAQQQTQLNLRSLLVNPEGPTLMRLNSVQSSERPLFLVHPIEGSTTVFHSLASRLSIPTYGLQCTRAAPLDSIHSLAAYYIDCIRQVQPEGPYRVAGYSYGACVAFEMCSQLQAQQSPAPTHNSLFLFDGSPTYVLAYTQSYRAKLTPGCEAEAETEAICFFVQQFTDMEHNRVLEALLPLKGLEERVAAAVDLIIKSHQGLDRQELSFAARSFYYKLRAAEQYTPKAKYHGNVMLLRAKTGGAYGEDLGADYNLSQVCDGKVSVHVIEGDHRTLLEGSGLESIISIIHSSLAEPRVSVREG
Sequence of Cytochrome P450 2D6 (P10635 whole entry): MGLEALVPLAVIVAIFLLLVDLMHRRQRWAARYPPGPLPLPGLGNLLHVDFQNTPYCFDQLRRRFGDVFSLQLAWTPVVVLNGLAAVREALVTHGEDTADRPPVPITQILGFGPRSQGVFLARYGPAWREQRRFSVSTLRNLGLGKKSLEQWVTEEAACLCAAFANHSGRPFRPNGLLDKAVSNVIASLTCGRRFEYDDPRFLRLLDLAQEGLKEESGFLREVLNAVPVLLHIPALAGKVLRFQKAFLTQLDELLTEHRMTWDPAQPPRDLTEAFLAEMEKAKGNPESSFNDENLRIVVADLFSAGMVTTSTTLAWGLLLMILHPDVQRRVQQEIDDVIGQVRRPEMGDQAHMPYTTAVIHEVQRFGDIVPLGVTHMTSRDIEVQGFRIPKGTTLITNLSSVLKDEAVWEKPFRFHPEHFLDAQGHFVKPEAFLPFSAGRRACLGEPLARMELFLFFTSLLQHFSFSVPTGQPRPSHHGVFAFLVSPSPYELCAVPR

| IC50 (Fatty acid synthase [2]) | IC50 (Fatty acid synthase [3]) | Compound | EC50 [5] | EC50 [6] | other results |
| --- | --- | --- | --- | --- | --- |
| 2.6 µM (active) | 2.17 µM (active) | O=C(CC1C[C@H](C(=O)N2CCOCC2)[C@@]2(CCC3CCCC3)c3[nH]c4ccccc4c3CCN2C1=O)NCCN1CCOCC1 (stereo not given in full) |  |  |  |
| 14 µM (active) | 8.88 µM (active) | Fc1ccc(-n2c(Cc3ccccc3)nnc2SCc2nc(-c3ccc(Cl)cc3)no2)cc1 |  |  |  |
|  |  | O=C(COC(=O)c1[nH]nc2ccccc12)NC(=O)NC12CC3CC(CC(C3)C1)C2 | 14.8 µM (active) | 22.1 µM (active) |  |
| 18.7 µM (active) | 15.6 µM (active) | O=C(c1cc2cc3ccc(Cl)cc3nc2o1)N1CCCCCC1 |  |  |  |
| 10.7 µM (active) | 11.8 µM (active) | O=C(/C=C/c1cccc([N+](=O)[O-])c1)NCCc1ccc(F)cc1 |  |  |  |
|  |  | Cc1ccc(OCC(=O)Nc2ccc(O)c(-c3nc4ccccc4o3)c2)cc1 | 26.8 µM (active) | 32.7 µM (active) |  |
|  |  | CC(Cc1cccs1)NC(=O)Nc1ccc(Cl)c(Cl)c1 (stereo not given) | 17.4 µM (active) | 22.6 µM (active) |  |
|  |  | CCCCNC(=O)C1CC(c2c(Cl)cccc2Cl)=NO1 (stereo not given) | 21.8 µM (active) | 29.6 µM (active) |  |
|  |  | O=C(CNc1cccc2ccccc12)N/N=C/C(Br)=C/c1ccccc1 | 22.9 µM (active) | 25.8 µM (active) |  |
| 4.19 µM (active) | 9.71 µM (active) | CCN(CC)S(=O)(=O)c1ccc(N2CCc3ccccc3C2)nc1 |  |  |  |
|  |  | Nc1c(C(=O)Nc2ccc(S(=O)(=O)N3CCCC3)cc2)sc2nc3cc4c(cc3cc12)CCC4 | 4.9 µM (active) | 4.81 µM (active) | AC50 (INS1): 3.29 µM (active); CC50 [7]: 27.9 µM (active) |
| 12.9 µM (active) | 12.6 µM (active) | Cc1cc(C)c(Cn2cnc(-c3ccc([N+](=O)[O-])cc3)c2)c(C)c1 |  |  | AC50 (Cytochrome P450 2D6): 28.2 µM (inconclusive) |
|  |  | O=[N+]([O-])c1ccccc1-c1cc(-c2cc(Cl)ccc2O)n[nH]1 | 19.5 µM (active) | 27 µM (active) |  |
| 9.58 µM (active) | 8.78 µM (active) | O=C(COC(=O)c1cccc([N+](=O)[O-])c1)NC1CCCC1 |  |  |  |
| 5.34 µM (active) | 6.95 µM (active) | Cc1c(C)c2ccc(OCC(=O)N3CCN(c4ccccc4)CC3)cc2oc1=O |  |  |  |

| Compound | IC50 (Fatty acid synthase [2]) | IC50 (Fatty acid synthase [3]) | EC50 [5] | EC50 [6] | other results |
| --- | --- | --- | --- | --- | --- |
| Cc1ccn2c(=O)nc(SCC(=O)N3N=C(c4cccs4)CC3c3ccc(F)cc3)nc2c1 (stereo not given) | 13.9 µM (active) | 10.3 µM (active) |  |  | EC50 [1]: > 60 µM (not active); EC50 [4]: 1.35 µM (active) |
| Cc1noc(C)c1NC(=O)Nc1cccc2c1O[C@H](CN(C)C(=O)Nc1ccccc1)[C@@H](C)CN([C@H](C)CO)C2=O | 13 µM (active) | 9.53 µM (active) |  |  |  |
| NC(=S)N/N=C/c1ccc(-c2ccc(SC(F)F)cc2)o1 | 16.9 µM (active) | 80 µM (inactive) |  |  | EC50 [1]: 12.7 µM (active); EC50 [8]: > 53 µM (inactive); IC50 [9]: > 47.1 µM (inactive); EC50 [4]: 0.895 µM (active) |
